Where two headings read alike, the source gives them in different places.
Assays:
[1] = assay type: physicochemical
Description: Human ghrelin, which is one of the ghrelins, was dissolved in the 0.05M glycine hydrochloride buffer solutions (pH 3.5) to obtain an aqueous solution containing human ghrelin with following five concentrations, which are applicable for medical usage.
0.03 nmol/mL (0.1 μg/mL); 0.3 nmol/mL (1.0 μg/mL);
3.0 nmol/mL (10.0 μg/mL); 0.3 μmol/mL (1.0 mg/mL);
Each solutions were stored at 25±2° C. for 24 hours, and after storage, the HPLC analyses of each solutions were conducted to calculate the residual ratios from the concentration of human ghrelin. The changes of pH value were also examined to confirm no significant changes of pH in solutions occurred.
The residual ratio of the solution before storage was referred to as 100%, and the residual ratio of each solution after storage and the changes of pH value of each solution were summarized in the following Table 4.

[2] = Stability of human ghrelin in citrate buffer solutions, 40°C/2 weeks (Example 4); assay type: physicochemical
Description: The obtained solutions were filled in brownish glass ampoules and the ampoules were sealed with fire, then, each ampoules were stored at 40±1° C. for 2 weeks. After storage for 2 weeks, the HPLC analysis of the solutions was conducted to calculate the residual ratio from the concentration of human ghrelin. The change of pH value was also measured.

[3] = h. ghrelin 0.03 nmol/mL in 0.05M glycine hydrochloride buffer (pH 3.5), after storage for 25° C./24 hours
[4] = h. ghrelin 0.03 nmol/mL in 0.05M glycine hydrochloride buffer (pH 3.5), just after preparation
[5] = h. ghrelin 0.3 nmol/mL in 0.05M glycine hydrochloride buffer (pH 3.5), after storage for 25° C./24 hours
[6] = h. ghrelin 0.3 nmol/mL in 0.05M glycine hydrochloride buffer (pH 3.5), just after preparation
[7] = h. ghrelin 3.0 nmol/mL in 0.05M glycine hydrochloride buffer (pH 3.5), after storage for 25° C./24 hours
[8] = h. ghrelin 3.0 nmol/mL in 0.05M glycine hydrochloride buffer (pH 3.5), just after preparation
[9] = h. ghrelin 0.3 μmol/mL in 0.05M glycine hydrochloride buffer (pH 3.5), after storage for 25° C./24 hours
[10] = h. ghrelin 0.3 μmol/mL in 0.05M glycine hydrochloride buffer (pH 3.5), just after preparation
[11] = h. ghrelin 3 μmol/mL in 0.05M glycine hydrochloride buffer (pH 3.5), after storage for 25° C./24 hours
[12] = h. ghrelin 3 μmol/mL in 0.05M glycine hydrochloride buffer (pH 3.5), just after preparation
[13] = human ghrelin 0.5 mg/mL in citrate buffer solution pH 3.5, after storage for 40° C./2 weeks
[14] = human ghrelin 0.5 mg/mL in citrate buffer solution pH 3.5, just after preparation
[15] = human ghrelin 0.5 mg/mL in citrate buffer solution pH 4.0, after storage for 40° C./2 weeks
[16] = human ghrelin 0.5 mg/mL in citrate buffer solution pH 4.0, just after preparation
[17] = human ghrelin 0.5 mg/mL in citrate buffer solution pH 4.5, after storage for 40° C./2 weeks
[18] = human ghrelin 0.5 mg/mL in citrate buffer solution pH 4.5, just after preparation
[19] = human ghrelin 0.5 mg/mL in citrate buffer solution pH 5.0, after storage for 40° C./2 weeks
[20] = human ghrelin 0.5 mg/mL in citrate buffer solution pH 5.0, just after preparation

Residual ratio [1, 3]: 62% | pH [1, 3]: 3.5 | Residual ratio [1, 4]: 100% | pH [1, 4]: 3.4 | Residual ratio [1, 5]: 98% | pH [1, 5]: 3.5 | Residual ratio [1, 6]: 100% | pH [1, 6]: 3.5 | Residual ratio [1, 7]: 98% | pH [1, 7]: 3.6 | Residual ratio [1, 8]: 100% | pH [1, 8]: 3.5 | Residual ratio [1, 9]: 101% | pH [1, 9]: 3.3 | Residual ratio [1, 10]: 100% | pH [1, 10]: 3.4 | Residual ratio [1, 11]: 101% | pH [1, 11]: 3.3 | Residual ratio [1, 12]: 100% | pH [1, 12]: 3.4 | Residual ratio [2, 13]: 89% | pH observed [2, 13]: 3.5 | Residual ratio [2, 14]: 100% | pH observed [2, 14]: 3.6 | Residual ratio [2, 15]: 88% | pH observed [2, 15]: 4.0 | Residual ratio [2, 16]: 100% | pH observed [2, 16]: 4.0 | Residual ratio [2, 17]: 86% | pH observed [2, 17]: 4.4 | Residual ratio [2, 18]: 100% | pH observed [2, 18]: 4.5 | Residual ratio [2, 19]: 85% | pH observed [2, 19]: 4.9 | Residual ratio [2, 20]: 100% | pH observed [2, 20]: 5.0
Compound: CCCCCCCC(=O)OC[C@H](NC(=O)[C@H](CO)NC(=O)CN)C(=O)N[C@@H](Cc1ccccc1)C(=O)N[C@@H](CC(C)C)C(=O)N[C@@H](CO)C(=O)N1CCC[C@H]1C(=O)N[C@@H](CCC(=O)O)C(=O)N[C@@H](Cc1c[nH]cn1)C(=O)N[C@@H](CCC(N)=O)C(=O)N[C@@H](CCCNC(=N)N)C(=O)N[C@H](C(=O)N[C@@H](CCC(N)=O)C(=O)N[C@@H](CCC(N)=O)C(=O)N[C@@H](CCCNC(=N)N)C(=O)N[C@@H](CCCCN)C(=O)N[C@@H](CCC(=O)O)C(=O)N[C@@H](CO)C(=O)N[C@@H](CCCCN)C(=O)N[C@@H](CCCCN)C(=O)N1CCC[C@H]1C(=O)N1CCC[C@H]1C(=O)N[C@@H](C)C(=O)N[C@@H](CCCCN)C(=O)N[C@@H](CC(C)C)C(=O)N[C@@H](CCC(N)=O)C(=O)N1CCC[C@H]1C(=O)N[C@@H](CCCNC(=N)N)C(=O)O)C(C)C [Human ghrelin]
